PMC4496362, “Potentiating the cellular targeting and anti-tumor activity of Dp44mT via binding to human serum albumin: two saturable mechanisms of Dp44mT uptake by cells” (Oncotarget, 2015)

Experiments:
Format in all cases: binding
Conditions in all cases: read-out: % released into dialysate
[1] = target: T1, bovine serum albumin (BSA) (Bos taurus, UniProt P02769); assay: equilibrium dialysis with […]-ligand
T1 construct: gene ALB

[2] = target: T2, human serum albumin (HSA) (Homo sapiens, UniProt P02768); assay: equilibrium dialysis with […]-ligand; Trp-214 fluorescence quenching
T2 construct: gene ALB

[3] = target: T1, bovine serum albumin (BSA); assay: equilibrium dialysis with […]-ligand (weak retention)

T2 sequence (P02768 25-609): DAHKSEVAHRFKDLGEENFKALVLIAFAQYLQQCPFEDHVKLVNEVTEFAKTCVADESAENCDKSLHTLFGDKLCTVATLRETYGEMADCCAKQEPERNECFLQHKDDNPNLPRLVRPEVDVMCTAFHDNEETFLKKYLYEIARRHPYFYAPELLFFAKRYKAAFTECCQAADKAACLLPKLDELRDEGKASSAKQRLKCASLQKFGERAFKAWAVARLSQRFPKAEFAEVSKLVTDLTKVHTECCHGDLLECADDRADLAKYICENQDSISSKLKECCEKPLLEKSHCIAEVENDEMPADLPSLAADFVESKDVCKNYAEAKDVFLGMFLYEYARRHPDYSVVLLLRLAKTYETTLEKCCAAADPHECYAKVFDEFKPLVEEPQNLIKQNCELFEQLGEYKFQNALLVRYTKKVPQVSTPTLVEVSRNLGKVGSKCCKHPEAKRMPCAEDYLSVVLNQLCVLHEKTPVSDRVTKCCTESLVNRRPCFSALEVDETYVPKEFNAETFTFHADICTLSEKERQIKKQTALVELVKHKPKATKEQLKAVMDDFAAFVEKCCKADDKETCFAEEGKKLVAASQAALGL
T1 sequence (P02769 25-607): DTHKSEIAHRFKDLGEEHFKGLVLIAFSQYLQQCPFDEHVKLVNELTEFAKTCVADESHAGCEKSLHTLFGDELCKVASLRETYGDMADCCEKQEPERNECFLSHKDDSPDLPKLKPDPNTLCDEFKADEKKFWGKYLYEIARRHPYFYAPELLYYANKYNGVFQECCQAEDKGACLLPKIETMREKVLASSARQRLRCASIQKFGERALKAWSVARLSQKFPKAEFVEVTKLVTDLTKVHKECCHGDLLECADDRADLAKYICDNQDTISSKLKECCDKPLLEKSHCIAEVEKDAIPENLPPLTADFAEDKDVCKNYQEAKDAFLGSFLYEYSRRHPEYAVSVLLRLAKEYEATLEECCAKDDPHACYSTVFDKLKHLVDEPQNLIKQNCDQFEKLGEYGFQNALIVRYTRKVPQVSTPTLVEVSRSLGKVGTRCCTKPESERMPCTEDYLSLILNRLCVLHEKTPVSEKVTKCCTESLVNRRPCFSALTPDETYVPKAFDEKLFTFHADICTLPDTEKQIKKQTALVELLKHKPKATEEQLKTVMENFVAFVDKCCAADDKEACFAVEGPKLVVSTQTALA

| Compound | fraction unbound [1] | fraction unbound [2] | fraction unbound [3] |
| --- | --- | --- | --- |
| CCNC(=S)N/N=C(\c1ccccc1)c1ccccn1 [Bp4eT, 2-benzoylpyridine 4-ethyl-3-thiosemicarbazone] | 0.09 ± 0.003 | 0.04 ± 0.003 |  |
| CN(C)C(=S)NN=C(c1ccccn1)c1ccccn1 [Dp44mT, di-2-pyridylketone 4,4-dimethyl-3-thiosemicarbazone] | 0.21 ± 0.005 | 0.22 ± 0.01 |  |
| Cc1ncc(CO)c(C=NNC(=O)c2ccncc2)c1O [PIH, pyridoxal isonicotinoyl hydrazone] |  | 0.06 ± 0.003 | 0.39 ± 0.003 |
